From patent US20110182850A1, “ORGANIC COMPOUNDS AND THEIR USES” (priority 2009, published 2011)

Target: T1, HCV NS3-4A serine protease (full-length NS3-4A protein, genotype 1a, strain HCV-1) (Hepatitis C virus genotype 1a, UniProt P26664)
T1 construct: using the full-length NS3-4A protein (genotype 1a, strain HCV-1)
Assay: HCV NS3-4A protease assay
Assay type: biochemical
Details: Protease IC50
Experimental: The inhibitory activity of certain compounds of Table A against HCV NS3-4A serine protease is determined in a homogenous assay using the full-length NS3-4A protein (genotype 1a, strain HCV-1) and a commercially available internally-quenched fluorogenic peptide substrate as described by Taliani, M., et al. 1996 Anal. Biochem. 240:60-67, which is incorporated by reference in its entirety.

T1 sequence (P26664 1658-1711): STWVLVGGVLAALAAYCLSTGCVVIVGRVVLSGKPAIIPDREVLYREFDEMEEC
T1 sequence (P26664 1027-1657): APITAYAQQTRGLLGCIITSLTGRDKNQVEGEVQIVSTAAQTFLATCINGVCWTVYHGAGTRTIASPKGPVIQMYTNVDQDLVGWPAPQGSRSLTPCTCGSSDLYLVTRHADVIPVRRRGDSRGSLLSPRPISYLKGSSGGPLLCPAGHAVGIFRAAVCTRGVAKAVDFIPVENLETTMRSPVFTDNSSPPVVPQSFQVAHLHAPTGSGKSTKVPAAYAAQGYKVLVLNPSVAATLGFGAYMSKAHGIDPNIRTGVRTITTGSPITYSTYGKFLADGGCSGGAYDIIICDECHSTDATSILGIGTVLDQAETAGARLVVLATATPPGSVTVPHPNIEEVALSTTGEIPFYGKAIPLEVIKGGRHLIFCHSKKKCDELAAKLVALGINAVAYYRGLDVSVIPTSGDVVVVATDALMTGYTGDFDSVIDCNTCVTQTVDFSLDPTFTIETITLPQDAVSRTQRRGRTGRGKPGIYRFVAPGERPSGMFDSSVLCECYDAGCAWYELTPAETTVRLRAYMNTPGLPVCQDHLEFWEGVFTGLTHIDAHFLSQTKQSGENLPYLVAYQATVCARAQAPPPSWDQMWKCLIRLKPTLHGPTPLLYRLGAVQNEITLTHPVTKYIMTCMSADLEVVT

Row | SMILES | IC50
1 | C=C[C@H]1C[C@@]1(NC(=O)[C@@H]1C[C@@]2(CN1C(=O)[C@@H](NC(=O)[C@@H](NC(=O)c1nccn1C)C1CCCCC1)C(C)(C)C)C(C)(C)C21CCC1)C(=O)NS(=O)(=O)C1CC1 [Compound 103, (5R,8S)-7-{(2S)-2-[(cyclohexyl{[(1-methyl-1H-imidazol-2-yl)carbonyl]amino}acetyl)amino]-3,3-dimethylbutanoyl}-N-{(1R,2S)-1-[(cyclopropylsulfonyl)carba-moyl]-2-vinylcyclopropyl}-10,10-dimethyl-7-azadispiro[3.0.4.1]decane-8-carboxamide] | 1.5 nM
2 | C=C[C@H]1C[C@@]1(NC(=O)[C@@H]1C[C@@]2(CN1C(=O)[C@@H](NC(=O)[C@@H](NC(=O)C(C)(C)N1CCCCC1)C1CCCCC1)C(C)(C)C)C(C)(C)C21CCC1)C(=O)NS(=O)(=O)C1CC1 [Compound 104, (5R,8S)-7-[(2S)-2-({cyclohexyl[(2-methyl-2-piperidin-1-ylpropanoyl)amino]acetyl}amino)-3,3-dimethylbutanoyl]-N-{(1R,2S)-1-[(cyclopropylsulfonyl)carba-moyl]-2-vinylcyclopropyl}-10,10-dimethyl-7-azadispiro[3.0.4.1]decane-8-carboxamide] | 0.7 nM
3 | C=C[C@H]1C[C@@]1(NC(=O)[C@@H]1C[C@@]2(CN1C(=O)[C@@H](NC(=O)[C@@H](NC(=O)c1ncc[nH]1)C1CCCCC1)C(C)(C)C)C(C)(C)C21CCC1)C(=O)NS(=O)(=O)C1CC1 [Compound 105, (5R,8S)-7-[(2S)-2-({cyclohexyl[(1H-imidazol-2-ylcarbonyl)amino]acetyl}amino)-3,3-dimethylbutanoyl]-N-{(1R,2S)-1-[(cyclopropylsulfonyl)carba-moyl]-2-vinylcyclopropyl}-10,10-dimethyl-7-azadispiro[3.0.4.1]decane-8-carboxamide] | 0.9 nM
4 | C=C[C@H]1C[C@@]1(NC(=O)[C@@H]1C[C@@]2(CN1C(=O)[C@@H](NC(=O)[C@@H](NC(=O)c1ccno1)C1CCCCC1)C(C)(C)C)C(C)(C)C21CCC1)C(=O)NS(=O)(=O)C1CC1 [Compound 107, (5R,8S)-7-[(2S)-2-({cyclohexyl[(isoxazol-5-ylcarbonyl)amino]acetyl}amino)-3,3-dimethylbutanoyl]-N-{(1R,2S)-1-[(cyclopropylsulfonyl)carba-moyl]-2-vinylcyclopropyl}-10,10-dimethyl-7-azadispiro[3.0.4.1]decane-8-carboxamide] | 0.6 nM
5 | C=C[C@H]1C[C@@]1(NC(=O)[C@@H]1C[C@@]2(CN1C(=O)[C@@H](NC(=O)[C@@H](NC(=O)[C@@H]1CCCO1)C1CCCCC1)C(C)(C)C)C(C)(C)C21CCC1)C(=O)NS(=O)(=O)C1CC1 [Compound 108, (5R,8S)-7-{(2S)-2-[(cyclohexyl{[(2S)-tetrahydrofuran-2-ylcarbonyl]amino}acetyl)amino]-3,3-dimethylbutanoyl}-N-{(1R,2S)-1-[(cyclopropylsulfonyl)carba-moyl]-2-vinylcyclopropyl}-10,10-dimethyl-7-azadispiro[3.0.4.1]decane-8-carboxamide] | 2.5 nM
6 | C=C[C@H]1C[C@@]1(NC(=O)[C@@H]1C[C@@]2(CN1C(=O)[C@@H](NC(=O)[C@@H](NC(=O)C1CNC(=O)C1)C1CCCCC1)C(C)(C)C)C(C)(C)C21CCC1)C(=O)NS(=O)(=O)C1CC1 (stereo partly drawn) [Compound 109, (5R,8S)-7-{(2S)-2-[(cyclohexyl{[(5-oxopyrrolidin-3-yl)carbonyl]amino}acetyl)amino]-3,3-dimethylbutanoyl}-N-{(1R,2S)-1-[(cyclopropylsulfonyl)carba-moyl]-2-vinylcyclopropyl}-10,10-dimethyl-7-azadispiro[3.0.4.1]decane-8-carboxamide] | 0.6 nM
7 | C=C[C@@H]1C[C@]1(NC(=O)[C@@H]1C[C@@]2(CN1C(=O)[C@@H](NC(=O)[C@@H](NC(=O)[C@@H]1CCC(=O)N1)C1CCCCC1)C(C)(C)C)C(C)(C)C21CCC1)C(=O)NS(=O)(=O)C1CC1 [Compound 110, (5R,8S)-7-[(2S)-2-{[(2S)-2-cyclohexyl-2-({[(2S)-5-oxopyrrolidin-2-yl]carbonyl}amino)acetyl]amino}-3,3-dimethylbutanoyl]-N-{(1R,2S)-1-[(cyclopropylsulfonyl)carba-moyl]-2-vinylcyclopropyl}-10,10-dimethyl-7-azadispiro[3.0.4.1]decane-8-carboxamide] | 1.5 nM
8 | C=C[C@@H]1C[C@]1(NC(=O)[C@@H]1C[C@@]2(CN1C(=O)[C@@H](NC(=O)[C@@H](NC(=O)[C@H]1CCC(=O)N1)C1CCCCC1)C(C)(C)C)C(C)(C)C21CCC1)C(=O)NS(=O)(=O)C1CC1 [Compound 111, (5R,8S)-7-[(2S)-2-{[(2S)-2-cyclohexyl-2-({[(2R)-5-oxopyrrolidin-2-yl]carbonyl}amino)acetyl]amino}-3,3-dimethylbutanoyl]-N-{(1R,2S)-1-[(cyclopropylsulfonyl)carba-moyl]-2-vinylcyclopropyl}-10,10-dimethyl-7-azadispiro[3.0.4.1]decane-8-carboxamide] | 2 nM
9 | C=C[C@@H]1C[C@]1(NC(=O)[C@@H]1C[C@@]2(CN1C(=O)[C@@H](NC(=O)[C@@H](NC(=O)c1cocn1)C1CCCCC1)C(C)(C)C)C(C)(C)C21CCC1)C(=O)NS(=O)(=O)C1CC1 [Compound 112, (5R,8S)-7-[(2S)-2-({(2S)-2-cyclohexyl-2-[(1,3-oxazol-4-ylcarbonyl)amino]acetyl}amino)-3,3-dimethylbutanoyl]-N-{(1R,2S)-1-[(cyclopropylsulfonyl)carba-moyl]-2-vinylcyclopropyl}-10,10-dimethyl-7-azadispiro[3.0.4.1]decane-8-carboxamide] | 1.5 nM
10 | C=C[C@@H]1C[C@]1(NC(=O)[C@@H]1C[C@@]2(CN1C(=O)[C@@H](NC(=O)[C@@H](NC(=O)c1cnco1)C1CCCCC1)C(C)(C)C)C(C)(C)C21CCC1)C(=O)NS(=O)(=O)C1CC1 [Compound 113, (5R,8S)-7-[(2S)-2-({(2S)-2-cyclohexyl-2-[(1,3-oxazol-5-ylcarbonyl)amino]acetyl}amino)-3,3-dimethylbutanoyl]-N-{(1R,2S)-1-[(cyclopropylsulfonyl)carba-moyl]-2-vinylcyclopropyl}-10,10-dimethyl-7-azadispiro[3.0.4.1]decane-8-carboxamide] | 2.5 nM
11 | C=C[C@@H]1C[C@]1(NC(=O)[C@@H]1C[C@@]2(CN1C(=O)[C@@H](NC(=O)[C@@H](NC(=O)c1ccc[nH]1)C1CCCCC1)C(C)(C)C)C(C)(C)C21CCC1)C(=O)NS(=O)(=O)C1CC1 [Compound 114, (5R,8S)-7-[(2S)-2-({(2S)-2-cyclohexyl-2-[(1H-pyrrol-2-ylcarbonyl)amino]acetyl}amino)-3,3-dimethylbutanoyl]-N-{(1R,2S)-1-[(cyclopropylsulfonyl)carba-moyl]-2-vinylcyclopropyl}-10,10-dimethyl-7-azadispiro[3.0.4.1]decane-8-carboxamide] | 0.7 nM
12 | C=C[C@@H]1C[C@]1(NC(=O)[C@@H]1C[C@@]2(CN1C(=O)[C@@H](NC(=O)[C@@H](NC(=O)c1ccncn1)C1CCCCC1)C(C)(C)C)C(C)(C)C21CCC1)C(=O)NS(=O)(=O)C1CC1 [Compound 115, (5R,8S)-7-[(2S)-2-({(2S)-2-cyclohexyl-2-[(pyrimidin-4-ylcarbonyl)amino]acetyl}amino)-3,3-dimethylbutanoyl]-N-{(1R,2S)-1-[(cyclopropylsulfonyl)carba-moyl]-2-vinylcyclopropyl}-10,10-dimethyl-7-azadispiro[3.0.4.1]decane-8-carboxamide] | 0.6 nM
13 | C=C[C@@H]1C[C@]1(NC(=O)[C@@H]1C[C@@]2(CN1C(=O)[C@@H](NC(=O)[C@@H](NC(=O)c1cncnc1)C1CCCCC1)C(C)(C)C)C(C)(C)C21CCC1)C(=O)NS(=O)(=O)C1CC1 [Compound 116, (5R,8S)-7-[(2S)-2-({(2S)-2-cyclohexyl-2-[(pyrimidin-5-ylcarbonyl)amino]acetyl}amino)-3,3-dimethylbutanoyl]-N-{(1R,2S)-1-[(cyclopropylsulfonyl)carba-moyl]-2-vinylcyclopropyl}-10,10-dimethyl-7-azadispiro[3.0.4.1]decane-8-carboxamide] | 0.6 nM
14 | C=C[C@@H]1C[C@]1(NC(=O)[C@@H]1C[C@@]2(CN1C(=O)[C@@H](NC(=O)[C@@H](NC(=O)c1ncccn1)C1CCCCC1)C(C)(C)C)C(C)(C)C21CCC1)C(=O)NS(=O)(=O)C1CC1 [Compound 117, (5R,8S)-7-[(2S)-2-({(2S)-2-cyclohexyl-2-[(pyrimidin-2-ylcarbonyl)amino]acetyl}amino)-3,3-dimethylbutanoyl]-N-{(1R,2S)-1-[(cyclopropylsulfonyl)carba-moyl]-2-vinylcyclopropyl}-10,10-dimethyl-7-azadispiro[3.0.4.1]decane-8-carboxamide] | 8 nM
15 | C=C[C@@H]1C[C@]1(NC(=O)[C@@H]1C[C@@]2(CN1C(=O)[C@@H](NC(=O)[C@@H](NC(=O)c1[nH]c(C)c(C)c1C(C)=O)C1CCCCC1)C(C)(C)C)C(C)(C)C21CCC1)C(=O)NS(=O)(=O)C1CC1 [Compound 118, (5R,8S)-7-[(2S)-2-{[(2S)-2-{[(3-acetyl-4,5-dimethyl-1H-pyrrol-2-yl)carbonyl]amino}-2-cyclohexylacetyl]amino}-3,3-dimethylbutanoyl]-N-{(1R,2S)-1-[(cyclopropylsulfonyl)carba-moyl]-2-vinylcyclopropyl}-10,10-dimethyl-7-azadispiro[3.0.4.1]decane-8-carboxamide] | 1.4 nM
16 | C=C[C@@H]1C[C@]1(NC(=O)[C@@H]1C[C@@]2(CN1C(=O)[C@@H](NC(=O)[C@@H](NC(=O)C(C)(C)N1CCCCC1)C(C)(C)C)C(C)(C)C)C(C)(C)C21CCC1)C(=O)NS(=O)(=O)C1CC1 [Compound 119, (5R,8S)-N-{(1R,2S)-1-[(cyclopropylsulfonyl)carba-moyl]-2-vinylcyclopropyl}-7-[(2S)-2-({(2S)-3,3-dimethyl-2-[(2-methyl-2-piperidin-1-ylpropanoyl)amino]butanoyl}amino)-3,3-dimethylbutanoyl]-10,10-dimethyl-7-azadispiro[3.0.4.1]decane-8-carboxamide] | 3.5 nM
